Test results taken from PubChem BioAssay AID248 (DTP/NCI, 2004).
Values joined by “and” are separate entries in the source; they are usually repeats but may differ in a detail not shown here. Equal entries are not always repeated. Toxic doses and inconclusive results are not listed. No stated cut-off is given here; in the data, active means T/C of 150% or more; inactive means T/C below 125%.

Test system: L1210 leukemia ip in BDF1 mice, survival T/C
Assay: NCI In Vivo Anticancer Drug Screen. Data for tumor model L1210 Leukemia (intraperitoneal) in B6D2F1 (BDF1) mice
Settings: endpoint: mean survival time, higher = longer survival
How it was run: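 Each compound was tested against a transplantable tumor grown in mice. The endpoint was survival, with treated animals benchmarked against vehicle controls as a simple ratio.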

[1] = dose: 100.0 mg/kg/injection, schedule: Q04DX002 (ip), vehicle: Klucel (hydroxypropylcellulose) (HPC)
[2] = dose: 200.0 mg/kg/injection, schedule: Q04DX002 (ip), vehicle: Klucel (hydroxypropylcellulose) (HPC)
[3] = dose: 400.0 mg/kg/injection, schedule: Q04DX002 (ip), vehicle: Klucel (hydroxypropylcellulose) (HPC)
[4] = dose: 100.0 mg/kg/injection, schedule: Q01DX001 (ip), vehicle: saline
[5] = dose: 200.0 mg/kg/injection, schedule: Q01DX001 (ip), vehicle: saline
[6] = dose: 400.0 mg/kg/injection, schedule: Q01DX001 (ip), vehicle: saline
[7] = dose: 100.0 mg/kg/injection, schedule: Q04DX002 (ip), vehicle: saline
[8] = dose: 200.0 mg/kg/injection, schedule: Q04DX002 (ip), vehicle: saline
[9] = dose: 400.0 mg/kg/injection, schedule: Q04DX002 (ip), vehicle: saline
[10] = dose: 100.0 mg/kg/injection, schedule: Q01DX009 (ip), vehicle: Klucel (hydroxypropylcellulose) (HPC)
[11] = dose: 200.0 mg/kg/injection, schedule: Q01DX009 (ip), vehicle: Klucel (hydroxypropylcellulose) (HPC)
[12] = dose: 100.0 mg/kg/injection, schedule: Q04DX003 (ip), vehicle: Klucel (hydroxypropylcellulose) (HPC)
[13] = dose: 200.0 mg/kg/injection, schedule: Q04DX003 (ip), vehicle: Klucel (hydroxypropylcellulose) (HPC)
[14] = dose: 400.0 mg/kg/injection, schedule: Q04DX003 (ip), vehicle: Klucel (hydroxypropylcellulose) (HPC)
[15] = dose: 100.0 mg/kg/injection, schedule: Q01DX009 (ip), vehicle: saline with Tween-80
[16] = dose: 100.0 mg/kg/injection, schedule: Q04DX003 (ip), vehicle: saline with Tween-80
[17] = dose: 200.0 mg/kg/injection, schedule: Q01DX009 (ip), vehicle: saline with Tween-80
[18] = dose: 200.0 mg/kg/injection, schedule: Q04DX003 (ip), vehicle: saline with Tween-80
[19] = dose: 400.0 mg/kg/injection, schedule: Q01DX009 (ip), vehicle: saline with Tween-80
[20] = dose: 400.0 mg/kg/injection, schedule: Q04DX003 (ip), vehicle: saline with Tween-80
[21] = dose: 100.0 mg/kg/injection, schedule: Q01DX001 (ip), vehicle: Klucel (hydroxypropylcellulose) (HPC)
[22] = dose: 200.0 mg/kg/injection, schedule: Q01DX001 (ip), vehicle: Klucel (hydroxypropylcellulose) (HPC)

Measured: T/C

Cc1cc(OCCOC(=O)Nc2ccccc2C(F)(F)F)cc(C)c1Cl
inactive: [1] 89 % of control | [2] 101 % of control | [3] 92 % of control

CCOC(=O)C(C#N)=C1CCN(Cc2ccccc2)CC1
inactive: [4] 96 % of control | [5] 99 % of control | [6] 105 % of control

CCCCOCCOCCOC(OCCOCCOCCCC)c1ccc2c(c1)OCO2
inactive: [7] 88 % of control | [8] 92 % of control | [9] 95 % of control

COc1cccc(NC(=S)N2CCCCC2)c1
inactive: [10] 108 % of control | [11] 116 % of control | dose: 400.0 mg/kg/injection, schedule: Q01DX009 (ip), vehicle: Klucel (hydroxypropylcellulose) (HPC) 102 % of control

O=C1CC(N2CC2)C(=O)N1c1ccccc1 (stereo unspecified)
inactive: [10] 104 % of control | [12] 105 % of control | [11] 92 % of control | [13] 113 % of control | [14] 88 % of control

CCOC(=O)CN=C(C)OCC
inactive: [15] 100 % of control | [16] 107 % of control | [17] 99 % of control | [18] 97 % of control | [19] 90 % of control | [20] 103 % of control

Cc1ccc(Cl)cc1NC(=O)N1CCN(c2ccccc2)CC1
inactive: dose: 100.0 mg/kg/injection, schedule: Q01DX001 (ip), vehicle: saline with Tween-80 95 % of control | [15] 98 % of control and 103 % of control | dose: 100.0 mg/kg/injection, schedule: Q04DX002 (ip), vehicle: saline with Tween-80 120 % of control | dose: 100.0 mg/kg/injection, schedule: Q04DX003 (ip), vehicle: saline 101 % of control | dose: 200.0 mg/kg/injection, schedule: Q01DX001 (ip), vehicle: saline with Tween-80 87 % of control | [17] 100 % of control and 102 % of control | dose: 200.0 mg/kg/injection, schedule: Q04DX002 (ip), vehicle: saline with Tween-80 98 % of control and 86 % of control | dose: 200.0 mg/kg/injection, schedule: Q04DX003 (ip), vehicle: saline 90 % of control | dose: 400.0 mg/kg/injection, schedule: Q01DX001 (ip), vehicle: saline with Tween-80 100 % of control | [19] 92 % of control | dose: 400.0 mg/kg/injection, schedule: Q04DX002 (ip), vehicle: saline with Tween-80 95 % of control and 89 % of control | dose: 400.0 mg/kg/injection, schedule: Q04DX003 (ip), vehicle: saline 95 % of control

O=c1[nH]c(-c2ccccc2)nc(-c2ccccc2)c1CCO
inactive: [15] 92 % of control | [17] 86 % of control | [19] 91 % of control

COCc1c(COc2ccc(Cl)cc2)n(C)c2ccccc12
inactive: [1] 101 % of control | [2] 92 % of control | [3] 99 % of control

Clc1nc(N2CC2)nc(N2CC2)c1Br
inactive: dose: 0.2 mg/kg/injection, schedule: Q01DX Z (ip), vehicle: methylcellulose (MC) 88 % of control | dose: 0.5 mg/kg/injection, schedule: Q01DX Z (ip), vehicle: methylcellulose (MC) 104 % of control

CCCCCCCCCCCCCCCCCN
inactive: dose: 12.5 mg/kg/injection, schedule: Q01DX009 (ip), vehicle: Klucel (hydroxypropylcellulose) (HPC) 100 % of control | dose: 12.5 mg/kg/injection, schedule: Q04DX003 (ip), vehicle: Klucel (hydroxypropylcellulose) (HPC) 93 % of control | dose: 25.0 mg/kg/injection, schedule: Q01DX009 (ip), vehicle: Klucel (hydroxypropylcellulose) (HPC) 101 % of control | dose: 25.0 mg/kg/injection, schedule: Q04DX003 (ip), vehicle: Klucel (hydroxypropylcellulose) (HPC) 100 % of control | dose: 50.0 mg/kg/injection, schedule: Q04DX003 (ip), vehicle: Klucel (hydroxypropylcellulose) (HPC) 102 % of control

CC(C)C12CCC(C)(O1)C(O)C2O (stereo unspecified)
inactive: [4] 111 % of control | [5] 104 % of control | [6] 106 % of control

CCOC(=O)COc1ccc(-c2ccccc2)cc1Br
inactive: [1] 104 % of control | [2] 104 % of control | [3] 104 % of control

Cc1cccc(N=Cc2ccc3c(c2)OCO3)c1
inactive: dose: 50.0 mg/kg/injection, schedule: Q01DX009 (ip), vehicle: saline 94 % of control | dose: 100.0 mg/kg/injection, schedule: Q01DX009 (ip), vehicle: saline 94 % of control | dose: 200.0 mg/kg/injection, schedule: Q01DX009 (ip), vehicle: saline 94 % of control

CC(=O)N1CC(=O)NC1=S
inactive: [21] 115 % of control | [22] 107 % of control | dose: 400.0 mg/kg/injection, schedule: Q01DX001 (ip), vehicle: Klucel (hydroxypropylcellulose) (HPC) 95 % of control

COc1ccc(/C=C/c2cnnc3ccccc23)cc1OC
inactive: [21] 113 % of control | [22] 98 % of control

CC(=O)NS(=O)(=O)c1ccc(N)cc1
inactive: [15] 94 % of control | [16] 98 % of control | [17] 94 % of control | [18] 98 % of control | [19] 95 % of control | [20] 100 % of control

O=C(NCc1ccco1)Nc1ccc([N+](=O)[O-])cc1
inactive: dose: 222.0 mg/kg/injection, schedule: Q01DX Z (ip), vehicle: methylcellulose (MC) 101 % of control | dose: 333.0 mg/kg/injection, schedule: Q01DX Z (ip), vehicle: methylcellulose (MC) 94 % of control | dose: 500.0 mg/kg/injection, schedule: Q01DX Z (ip), vehicle: methylcellulose (MC) 96 % of control

O=C(COc1cc(Cl)c(Cl)cc1Cl)NCCO
inactive: [1] 92 % of control | [2] 110 % of control | [3] 108 % of control

CCOc1ncc([N+](=O)[O-])cc1[N+](=O)[O-]
inactive: [12] 88 % of control | [13] 92 % of control | [14] 90 % of control

Cc1cc(CC(O)(C(F)(F)Cl)C(F)(F)Cl)cc(C)n1
inactive: [15] 97 % of control | [17] 94 % of control | [19] 95 % of control

Cc1cc2nc(C(O)C(O)C(O)C(O)c3nc4cc(C)c(C)cc4[nH]3)[nH]c2cc1C (stereo unspecified)
inactive: dose: 100.0 mg/kg/injection, schedule: Q01DX001 (ip), vehicle: other 98 % of control | dose: 200.0 mg/kg/injection, schedule: Q01DX001 (ip), vehicle: other 87 % of control | dose: 400.0 mg/kg/injection, schedule: Q01DX001 (ip), vehicle: other 104 % of control

Clc1nc(Cl)c(Cl)c(C(Cl)(Cl)Cl)n1
inactive: dose: 25.0 mg/kg/injection, schedule: Q01DX009 (ip), vehicle: saline with Tween-80 101 % of control | dose: 50.0 mg/kg/injection, schedule: Q01DX009 (ip), vehicle: saline with Tween-80 92 % of control | [15] 87 % of control | [17] 86 % of control

COc1ccccc1C(=O)N/N=C/c1cccc([N+](=O)[O-])c1
inactive: [1] 96 % of control | [2] 89 % of control | [3] 89 % of control

CC1(C)OC2OC(CO)C(O)C(O)C2O1 (stereo unspecified)
inactive: [7] 94 % of control | [8] 94 % of control | [9] 94 % of control

CCCCC(CC)C(=O)N1CCOCC1 (stereo unspecified)
inactive: [16] 120 % of control | [18] 114 % of control | [20] 107 % of control
